# From US20240374546A1, “USES AND METHODS FOR PROMOTING INCREASED MITOCHONDRIAL MASS AND FUNCTION” (Brightseed, Inc., priority 2022, published 2024)
# Entries after “also recorded” stand apart in the source; their conditions may differ.
# Assays:
# PPARGC1A (PGC1α) mRNA = experiment: RNA-seq of livers of mice treated for 2 weeks with NCT; assay type: in vivo, mouse; details: livers of mice treated for 2 weeks (GEO 174848)
# Description: The ability of NCT to increase mitochondrial mass raised the question of the mechanism by which that occurred. […] PPARGC1A plays an important role in mitochondrial biogenesis but is not known to be regulated by HNF4α. […]
# total cellular NAD = experiment: Total NAD level in liver lysate; assay type: in vivo, mouse; details: HFD+NCT vs HFD
# Experimental: Total NAD level in liver lysate was analyzed according to manufacturer's instructions using a calorimetric NAD+/NADH assay kit (Cat #MET-5014, Cell Biolabs, Inc. USA)
# cleaved caspase3 = experiment: Cleaved caspase3 immunostaining; assay type: in vivo, mouse; details: mice fed HFD with vs without NCT
# Experimental: Frozen liver sections were permeabilized using 0.3% Triton-X and incubated in antigen retrieval solution (Antigen retrieval citrate, Biogenex) at sub-boiling temperature for 10 min. Subsequently, sections were incubated with blocking buffer containing 5% normal donkey serum (Jackson Immuno Research) followed by incubation overnight at 4° C. with mouse anti-HNF4α monoclonal antibody (1:800, Cat #PP-H1415-00, R&D Systems), rabbit polyclonal anti-VDAC antibody (1:400, cat #PA1-954A, Invitrogen) and cleaved caspase3 antibody (1:500, cat #9664, Cell Signaling). Sections were washed and incubated for 1 hour at room temperature with anti-mouse secondary antibody coupled with Alexa fluor 488 (1:400, Invitrogen) and antirabbit secondary antibody coupled with rhodamine red. Nuclei were visualized by counterstaining with DAPI (40,6-diamidino-2-phenylindole, Sigma Aldrich). Slides were mounted using fluorescence mounting medium and images were obtained at 40× magnification using an Olympus IX71 fluorescence microscope. Fluorescence intensity of HNF4α-stained nuclei and VDAC stained mitochondria was calculated using MetaMorph TL software (version 7.6.5.0, Olympus). Fold change was calculated by normalizing to values from mice fed NC. […]
# IL-6 = experiment: ELISA for IL-6 secreted into medium of primary human hepatocytes; assay type: cell-based; details: NCT 5, 15, 40 μM
# Experimental: (§1) Experiments with primary human hepatocytes were performed by CN-Bio (Cambridge, UK). Briefly, primary human hepatocytes (PHHs), human Kupffer cells (HKs) and human stellate cells (HSCs) were seeded onto CN-Bio's PhysioMimix LC12 MPS culture plates at 6×10^5 cells for PHHs and 6×10^4 cells for HKs and HSCs in 1.6 ml of CN-Bio's HEP-lean media with 5% FCS. Throughout the experiment the cells were maintained at a flow rate of 1 μl/s. After 24 hours (Day 1) of seeding, the media was changed to HEP-lean media and the cells were incubated until day 4 to allow the cells to form microtissues. At day 4 post seeding, media was changed to HEP-fat media and treated with DMSO or NCT (5, 15, 40 μM). Media was replaced on days 6 and 8. Cells were harvested on day 10 for RNA extraction and culture media was collected for ELISA analysis.
# VDAC1 = experiment: VDAC-1 immunostaining of liver sections; assay type: in vivo, mouse; details: HFD+NCT vs HFD
# Experimental: Frozen liver sections were permeabilized using 0.3% Triton-X and incubated in antigen retrieval solution (Antigen retrieval citrate, Biogenex) at sub-boiling temperature for 10 min. Subsequently, sections were incubated with blocking buffer containing 5% normal donkey serum (Jackson Immuno Research) followed by incubation overnight at 4° C. with mouse anti-HNF4α monoclonal antibody (1:800, Cat #PP-H1415-00, R&D Systems), rabbit polyclonal anti-VDAC antibody (1:400, cat #PA1-954A, Invitrogen) and cleaved caspase3 antibody (1:500, cat #9664, Cell Signaling). Sections were washed and incubated for 1 hour at room temperature with anti-mouse secondary antibody coupled with Alexa fluor 488 (1:400, Invitrogen) and antirabbit secondary antibody coupled with rhodamine red. Nuclei were visualized by counterstaining with DAPI (40,6-diamidino-2-phenylindole, Sigma Aldrich). Slides were mounted using fluorescence mounting medium and images were obtained at 40× magnification using an Olympus IX71 fluorescence microscope. Fluorescence intensity of HNF4α-stained nuclei and VDAC stained mitochondria was calculated using MetaMorph TL software (version 7.6.5.0, Olympus). Fold change was calculated by normalizing to values from mice fed NC.
# SDHA mRNA = experiment: qPCR primary human hepatocytes, SDHA mRNA; assay type: cell-based; details: NCT 5, 15, 40 μM
# Experimental: as §1
# Total RNA was isolated from liver tissues and primary human hepatocytes using Trizol (Invitrogen). cDNA was amplified using 3 μg of total RNA using qScript cDNA SuperMix (Quanta BioSciences, Beverly, MA, USA). Quantitative real time PCR (RT-PCR) analysis was performed using SYBR® Select Master Mix (Applied Biosystems) and an ABI 7900HT thermal cycler (Applied Biosystems, Thermo Fisher Scientific). Ct values were normalized to 18s rRNA and are expressed as fold change over samples from mice fed NC or cultured human hepatocytes without NCT.
# [1] = Liver profile analysis of blood (VetScan); assay type: in vivo, mouse
# Experimental: Mice were anesthetized and 100 μL of whole blood was collected via retro-orbital bleeding in lithium heparin blood collection tubes and transferred to single use VetScan mammalian liver profile reagent rotors. The levels of multiple analytes, including Alkaline Phosphatase (ALP), Alanine Aminotransferase (ALT), Gamma Glutamyl Transferase (GGT), Bile Acids (BA), TBIL (Total Bilirubin), Albumin (ALB), Blood Urea Nitrogen […] (BUN), Total Cholesterol (CHOL) were quantified using a VetScan VS2 Chemistry Analyzer (Abaxis North America, USA).
# T6PNE cells = experiment: Nitric oxide assay, T6PNE cells treated with palmitate; assay type: cell-based; details: palmitate plus 15 μM NCT, 3 days, normalized to protein
# Experimental: T6PNE cells were maintained in RPMI (5.5 mM glucose, Corning) supplemented with 10% fetal bovine serum (FBS, Sigma-Aldrich) and 1% penicillin-streptomycin (pen-strep, Gibco) in 5% CO2 at 37° C. Cells were treated with […] palmitate plus 0 or 15 μM NCT for 3 days in 10 cm plates and harvested with 500 μl PBS. For tissue specimens, snap frozen mouse liver was weighed and homogenized with PBS. NO was measured with the QuantiChrom Nitric Oxide Assay kit (D2NO-100, BioAssay Systems). Homogenized samples (150 μl) were processed for deproteination with 8 μl ZnSO4 and 8 μl NaOH. For normalization, an aliquot of samples from T6PNE cells was taken for BCA assay before deproteination. Samples and standard from kit incubated with reagents for 20 min at 60° C. and measured OD 540 nm.
# Palmitate (150 mM) (Sigma-Aldrich) was prepared in 50% ethanol and precomplexed with 15% fatty acid-free BSA (Research Organics, Cleveland, OH, USA) in a 37° C. water shaker. […] precomplexed palmitate was used as a 12 mM stock solution for all assays with a final concentration of 0.12 mM palmitate in cell culture medium.
# [2] = Overall tolerability across studies (maximum tolerated dose, two-week IP, long term oral); assay type: in vivo; details: short-term maximum tolerated dose study, two-week IP 200 mg/kg bid, long term oral administration
# Description: Given the chronic nature of disorders of lipotoxicity, the lack of discernable toxicity of NCT is critical, but this will obviously require additional investigation in human clinical trials.
compound,measurement,setting,value
"O=C(/C=C/c1ccc(O)c(O)c1)NCCc1ccc(O)cc1 [NCT, N-transcaffeoyltyramine]",increase in PPARGC1A (PGC1α) mRNA,PPARGC1A (PGC1α) mRNA,approximately 6 fold
same,total cellular NAD in liver,total cellular NAD,substantial increase
same,"Caspase 3, marker of apoptosis",cleaved caspase3,no change
same,IL-6 protein secreted by cultured human hepatocytes,IL-6,reduced
same,VDAC1 expression (HFD-induced decrease),VDAC1,substantial reversal
same,SDHA mRNA in primary human hepatocytes,SDHA mRNA,increased
same,other components of the liver profile panel,[1]; HFD versus HFD+NCT,no difference
same,blood ALP,[1]; HFD+NCT vs HFD,unchanged
same,blood ALT level,[1]; HFD+NCT vs HFD,reduced; also recorded: significantly decreased
same,nitric oxide (NO) in cultured cells treated with palmitate,T6PNE cells,decreased
same,deleterious effects / toxicity,[2],not seen any deleterious effects
